One series has as its system HIV-1 IIIB. The series is described as follows: AV-Finder-HIV Drug Discovery Assay: inhibition of HIV-1 IIIB replication in HeLa indicator cells (GFP fluorescence). Format: cell-based. The text has this:
In order to study the viral replication in vitro, the GenPhar (Mt. Pleasant, S.C.) AV-Finder™-HIV Drug Discovery Assay was used, that consists of two components: (1) a cloned, continuous-passage HeLa cell line containing an HIV-1 tat-activated molecular switch and a Green Fluorescent Protein reporter gene and (2) a recombinant adenovirus (rAd) vector containing the genes for all three of the HIV-1 receptor/co-receptors (CD4, CXCR4, and CCR5) to transduce into HeLa cells and convert them into highly susceptible HIV-1 indicator cells for use in the assay. The indicator cells over-express the HIV-1 receptor genes and are readily infected with any HIV-1 strain or isolate. […] Infected cells fluoresce brightly so that the inhibition of virus replication by potential antiviral drugs can be readily detected and quantified using standard laboratory plate reader technology.
(§1) Detector plates are set up at day 1 by adding HeLa cells (3000/well) to the adenovirus AD-3R in DMEM containing CCS in 96-well plates and to incubate at 37° C. under 95% humidity and 5% CO2 for 2 days. […] At day 4, the medium was replaced by fresh medium containing the corresponding concentration of the compounds of interest. The infectivity was assessed by measuring the fluorescence on each well at day 7 ([…]). […] At day 5, the medium was replaced by fresh medium containing the corresponding concentration of compounds of interest and the infectivity was assessed by measuring the fluorescence on each well at day 8. Results are expressed as percentage of inhibition of the viral replication.
Procaine HCl was used either alone dissolved in water (SP01) or in an Anticort-like formulation (SP01A) containing zinc sulfate heptahydrate and ascorbic acid at the ratio of about 27-107/1/1.3-2.0 (for example 200 mg procaine HCl with 7.5 mg of zinc sulfate heptahydrate and 12.5 mg of ascorbic acid; Xu, J. et al. J Pharmacol. Exper. Ther. 2003 307:1148-1157) (Samaritan Pharmaceuticals).

In the next series the test system is HeLa cells. The series is described as follows: MTT cytotoxicity assay (mitochondrial integrity). Format: cell-based, human. How it is done:
Following the above described cell treatment protocol, the levels of cellular 3-(4,5-dimethylthiazol-2-yl)-2,5-diphenyl tetrazolium bromide (MTT) reduction, a measure of mitochondrial integrity, were determined in order to examine whether the compounds tested were cytotoxic.

For another series, the system named is HIV MDR 769 strain. Description: Inhibition of multi-drug resistant HIV MDR 769 strain replication in HeLa cells, without pre-medication. In kind it is cell-based.
From the text: In order to study the viral replication in vitro, the GenPhar (Mt. Pleasant, S.C.) AV-Finder™-HIV Drug Discovery Assay was used, that consists of two components: (1) a cloned, continuous-passage HeLa cell line containing an HIV-1 tat-activated molecular switch and a Green Fluorescent Protein reporter gene and (2) a recombinant adenovirus (rAd) vector containing the genes for all three of the HIV-1 receptor/co-receptors (CD4, CXCR4, and CCR5) to transduce into HeLa cells and convert them into highly susceptible HIV-1 indicator cells for use in the assay. The indicator cells over-express the HIV-1 receptor genes and are readily infected with any HIV-1 strain or isolate. All HIV-1 strains tested thus far, regardless of co-receptor preference, and all subtypes or clades of HIV-1 will infect these indicator cells. Infected cells fluoresce brightly so that the inhibition of virus replication by potential antiviral drugs can be readily detected and quantified using standard laboratory plate reader technology.
as §1

The structures appear in SMILES notation. “Also recorded” adds a separate entry of the source. Read-outs that look alike come from different tables or passages of the source. Bounds are passed on as bounds.

As a reminder, the IC50 is the concentration that inhibits the measured activity by half. With `O=c1[nH]cnc2c1ncn2[C@H]1CC[C@@H](CO)O1` [ddI], the “inhibition of viral replication (strongest inhibition)” value with HIV-1 IIIB (no pre-medication, 0.01 μM) was found to be 26.37±26.11%. Half-maximal inhibition in the series on HeLa cells (IC50) required 89 µM.

`Nc1ccn([C@@H]2CS[C@H](CO)O2)c(=O)n1` [3TC]: the “inhibition of viral replication reached (maximal)” value in the series on HIV-1 IIIB (no pre-medication, dose-dependent, maximal concentrations) worked out at 90%.

For `CCN(CC)CCOC(=O)c1ccc(N)cc1` [SP01, 4-aminobenzoic acid 2-(diethylamino)ethyl ester], in the series on HIV-1 IIIB (48 hours pretreatment, all concentrations tested), the “inhibition of HIV replication” value stood at 75%. In the series with HIV-1 IIIB (human cells), the “efficacy in reducing HIV-1 IIIB replication compared with AZT, ddI or 3TC” value is given as “efficacy higher than AZT, ddI or 3TC”. The “efficacy of inhibition of HIV-1 IIIB viral replication compared with 3TC” value in the series on HIV-1 IIIB (no pre-medication, concentrations up to 0.1 μM) was “higher efficacy than the classical antiviral agent 3TC”. Also, in the series on HeLa cells (all concentrations tested, up to 100 μM), the “cell toxicity by MTT cytotoxicity assay” value is “devoid of cell toxicity”. Also, the “effect on HIV MDR 769 strain replication” value in the series with HIV MDR 769 strain is given as “effectively blocked”; in the series on HIV MDR 769 strain (concentrations higher than 1 nM), “not effective”. Besides, the “inhibition of HIV MDR 769 viral replication” value with HIV MDR 769 strain (concentrations up to 1 nM) is listed as 75%.

With `CCN(CC)CCNC(=O)c1ccc(N)cc1` [SP100, procainamide], the “effect on HIV MDR 769 strain replication” value in the series on HIV MDR 769 strain was “effectively blocked”.

`Cc1cn([C@H]2C[C@H](N=[N+]=[N-])[C@@H](CO)O2)c(=O)[nH]c1=O` [AZT]: in the series with HIV-1 IIIB (24 hours pre-medication, 30 pM), the “inhibition of the replication at the peak concentration” value was < 30%. Further, the figures for the IC50 in the series with HIV-1 IIIB (48 hours pretreatment) and in the series with HeLa cells were 0.03 µM and 161 µM, respectively. Further, in the series on HIV MDR 769 strain, the “effect on HIV MDR 769 strain replication” value is “ineffective; also recorded: not effective”.

Values taken from patent US20070049585A1, “BENZAMIDE AND BENZOATE ANTI-HIV COMPOUNDS” (priority 2004, published 2007).
